Data on one substance can be found in patent US8940701B2, “Compounds for, and methods of, treating cancer and inhibiting invasion and metastases” (The Regents of the University of Michigan, priority 2009, dated 2015).

In data set [1] the test system is metastatic human breast (SUM 52 PE) and prostate (DU 145) cancer cell lines, human microvascular cells (hmvec). It is filed as cell-based. The settings on record: 72 h. Here is the method: Some of the examples below employ an invasion assay utilizing naturally occurring basement membranes from 72 hour sea urchin embryos. Breast and prostate cancer invasion was induced with serum; hmvec invasion was induced with the PHSRN sequence of the plasma fibronectin (pFn) cell binding domain. The assay is described in U.S. Pat. No. 6,001,965, hereby incorporated by reference.
In this example, PHSCN peptides, where the sulfur of the SH group of cysteine was modified to block disulfide bond formation, were tested in an in vitro invasion assay utilizing naturally occurring basement membranes. More specifically, the invasion-inhibiting potencies of S-methylated and S-acetylated derivatives of the PHSCN (SEQ ID NO:1) peptide [i.e. Ac-PHSC(S—CH3)N—NH2 (SEQ ID NO:3) and Ac-PHSC(S—COCH3)N—NH2, (SEQ ID NO:4), respectively] were quantitated [in comparison with PHSCN (SEQ ID NO:1) dimerized by S—S bond formation] with two types of metastatic human cancer cell lines, i.e. a breast cell line (SUM 52 PE) and a prostate cell line (DU 145) (see FIG. 1 and FIG. 2, respectively). These modified peptides prevent breast cancer and prostate cancer invasion at concentrations in the pg/ml range.
In this example, PHSCN peptides, where two L-amino acids are substituted with D-amino acids, were tested in an in vitro invasion assay utilizing naturally occurring basement membranes. More specifically, the invasion-inhibiting potencies of Ac-PHScN—NH2 (SEQ ID NO:7), and Ac-PhScN—NH2 (SEQ ID NO:8) were quantitated [in comparison with Ac-PHSCN—NH2 (SEQ ID NO:12) as well as a scrambled peptide Ac-HSPNC—NH2 (SEQ ID NO:15)] with two types of metastatic human cancer cell lines, i.e. a breast cell line (SUM 52 PE) and a prostate cell line (DU 145) (see FIG. 3 and FIG. 4, respectively), as well as human microvascular cells (“hmvec”) (see FIG. 5). These modified peptides prevent breast cancer and prostate cancer invasion at concentrations in the pg/ml range.
Table I compares IC50's of Ac-PHSCN—NH2 (“PHSCN”) (SEQ ID NO:12), Ac-PhScN—NH2 (SEQ ID NO:8) (“PhScN”), Ac-PHScN—NH2 (SEQ ID NO:7) (“PHScN”), and the S-methylated and S-acetylated PHSCN derivatives [Ac-PHSC(S-Me)N—NH2 (SEQ ID NO:3) and Ac-PHSC(S—COCH3)N—NH2 (SEQ ID NO:4)]. The IC50 for PhScN is over 10,000-fold lower than that for PHSCN.

The test system of another data set is DU 145 prostate cancer. Description: subcutaneous DU 145 tumors in nude mice, systemic therapy. In kind it is in vivo, athymic nude mice. The settings on record: 0.5 mg per kg thrice-weekly by tail vein injection, 7 weeks of treatment. Here is the method: In this example, PHSCN peptides, where two L-amino acids are substituted with D-amino acids, were tested in vivo. FIG. 6 compares the antitumorigenic effects of systemic Ac-PhScN—NH2 (SEQ ID NO:8) therapy at three different dosages (0.5, 0.05, and 0.005 micrograms per kg) with the antitumorigenic effects of 0.5 mg (500 micrograms) per kg of Ac-PHSCN—NH2 (SEQ ID NO:12) therapy using the DU 145 prostate cancer (as well as with untreated controls). The experiment involved generating subcutaneous DU 145 tumors in nude mice. More specifically, 500,000 suspended DU 145 cells were injected subcutaneously into the flanks of athymic nude mice. All mice were allowed to grow untreated DU 145 tumors in their flanks for about 8 weeks. All 3 therapies (i.e. using the three different dosages) were administered thrice-weekly by tail vein injection after the tumors became palpable. Each treatment group consisted of 8 intramuscular (flank) tumors. After 7 weeks of treatment, when the untreated tumors were very large, all mice were sacrificed at the same time, and all tumors dissected out and measured.

The next data set deals with BxPC-3 cells. Description: invasion of irradiated cells on SU-ECM basement membranes. In kind it is cell-based. The conditions noted are these: 1 μg/ml peptide, single 3 Gy dose, 16 hours. Here is the method: (§1) Adherent BxPC-3 and Panc1 cells were irradiated. Panc1 cells received a single 2 Gy dose. BxPC-3 cells received a single 3 Gy dose. Approximately 45 minutes later, the cells were suspended (trypsinized), pelleted and resuspended in medium containing 10% fetal calf serum. Then, the appropriate concentration of the Ac-PHSCN—NH2 (SEQ ID NO: 12) peptide, as well as a scrambled peptide Ac-HSPNC—NH2 (SEQ ID NO:15), was added to the suspended cells to make a final peptide concentration of 1 μg/ml, and they were dropped onto the surfaces of SU-ECM (sea urchin embryo basement membranes). At the time the cells were placed on the basement membranes, one hour had elapsed since irradiation. Cells were incubated on the basement membranes for 16 hours at 37° C. in 5% CO2, prior to scoring at 400-fold magnification, under phase contrast optics. All single cells adherent to the basement membranes were scored, with respect to whether they were inside the basement membranes (invaded), or were still adherent to the exterior surface (uninvaded). Mean invasion percentages were determined with their first standard deviations for each sample.

Another data set relates to Panc1 cells. The data set is described as above. The conditions noted are these: 1 μg/ml peptide, single 2 Gy dose, 16 hours. It is filed as cell-based. Here is the method:
as §1

Data set [2] relates to human breast and prostate cancer cell lines. The settings on record: systemic; cited from earlier work.
The test system of data set [3] is hmvec, normal human microvascular cells. The settings on record: cited from earlier work.
A further data set relates to end-stage human cancers. The conditions noted are these: cited from earlier work.
A further data set concerns the target α5β1 integrin (Homo sapiens, UniProt P08648). Kind of data set: surface α5β1 levels on irradiated pancreatic cancer cells (immunofluorescence). The conditions noted are these: 1 μg per ml prebound 1 hour; Panc1 2 Gy, BxPC-3 3 Gy; 1 hr and 2 hr. Set-up: surface α5β1 levels on irradiated pancreatic cancer cells; endogenous in cells; host or cells: Panc1 and BxPC-3 pancreatic cancer cells. In kind it is cell-based. Here is the method:
In this example, antibodies are used to measure downregulation of surface α5β1 levels on irradiated pancreatic cancer cells. Cells were prebound to 1 μg per ml Ac-PHSCN—NH2 (SEQ ID NO:12) peptide per 20,000 cells in medium containing 10% fetal bovine serum for serum for 1 hour at 37° C. The peptide-containing medium was removed, and replaced with serum-containing medium, prior to irradiation. Adherent cells were irradiated once: 2 Gy for Panc1 cells, and 3 Gy for BxPC-3 cells. One hour after irradiation, cells were quickly rinsed with phosphate-buffered saline (PBS) pH 7.4), then fixed for 15 minutes in 4% Paraformaldahyde (commercially available from Fluka) in PBS at room temperature. […] After three PBS washes, cells were incubated in anti-mouse IgG secondary antibody, conjugated with fluorosceine isothiocyanate (FITC) fluorescence marker (commercially available from Jackson ImmunoResearch Lab, Inc) at 1:200 dilution for 1 h at room temperature. […]
Means and first standard deviations (SD) were calculated using Image-Pro Plus software over 30 areas per treatment selected randomly under 400-fold magnification, then copied and pasted on Microsoft Excel data sheets for further data analysis. All data (see FIG. 10) are expressed as mean±SD and evaluated with ANOVA Student t-test. […]

Chain of α5β1 integrin (P08648 42-894 limits assumed): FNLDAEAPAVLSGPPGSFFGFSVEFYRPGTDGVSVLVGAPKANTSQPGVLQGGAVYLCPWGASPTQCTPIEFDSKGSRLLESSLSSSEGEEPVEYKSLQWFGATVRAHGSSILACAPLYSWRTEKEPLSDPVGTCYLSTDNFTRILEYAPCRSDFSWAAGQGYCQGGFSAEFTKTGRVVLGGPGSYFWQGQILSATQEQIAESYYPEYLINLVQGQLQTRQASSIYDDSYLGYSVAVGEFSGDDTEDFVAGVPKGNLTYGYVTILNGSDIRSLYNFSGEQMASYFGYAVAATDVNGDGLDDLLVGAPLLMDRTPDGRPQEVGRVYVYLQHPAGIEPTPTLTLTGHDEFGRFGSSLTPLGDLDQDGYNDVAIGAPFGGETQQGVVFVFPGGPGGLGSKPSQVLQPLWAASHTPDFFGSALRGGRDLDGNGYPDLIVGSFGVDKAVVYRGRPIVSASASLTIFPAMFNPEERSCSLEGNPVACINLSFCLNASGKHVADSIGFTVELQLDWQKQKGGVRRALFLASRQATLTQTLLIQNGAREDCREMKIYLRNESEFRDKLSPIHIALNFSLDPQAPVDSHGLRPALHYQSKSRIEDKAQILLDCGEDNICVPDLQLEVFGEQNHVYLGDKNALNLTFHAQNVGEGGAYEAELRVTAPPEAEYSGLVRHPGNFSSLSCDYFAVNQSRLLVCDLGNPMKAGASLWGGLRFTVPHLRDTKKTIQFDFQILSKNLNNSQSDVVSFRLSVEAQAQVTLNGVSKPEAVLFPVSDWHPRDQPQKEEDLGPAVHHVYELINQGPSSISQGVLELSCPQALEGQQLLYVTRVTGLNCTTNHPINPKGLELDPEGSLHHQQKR
Chain of α5β1 integrin (P08648 895-1049 partner limits assumed): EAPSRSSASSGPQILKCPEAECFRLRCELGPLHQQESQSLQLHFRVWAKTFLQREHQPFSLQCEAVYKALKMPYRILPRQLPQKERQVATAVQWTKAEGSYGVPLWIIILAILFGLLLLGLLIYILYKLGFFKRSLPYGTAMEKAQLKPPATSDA
Chain of α5β1 integrin (P05556 21-798 partner): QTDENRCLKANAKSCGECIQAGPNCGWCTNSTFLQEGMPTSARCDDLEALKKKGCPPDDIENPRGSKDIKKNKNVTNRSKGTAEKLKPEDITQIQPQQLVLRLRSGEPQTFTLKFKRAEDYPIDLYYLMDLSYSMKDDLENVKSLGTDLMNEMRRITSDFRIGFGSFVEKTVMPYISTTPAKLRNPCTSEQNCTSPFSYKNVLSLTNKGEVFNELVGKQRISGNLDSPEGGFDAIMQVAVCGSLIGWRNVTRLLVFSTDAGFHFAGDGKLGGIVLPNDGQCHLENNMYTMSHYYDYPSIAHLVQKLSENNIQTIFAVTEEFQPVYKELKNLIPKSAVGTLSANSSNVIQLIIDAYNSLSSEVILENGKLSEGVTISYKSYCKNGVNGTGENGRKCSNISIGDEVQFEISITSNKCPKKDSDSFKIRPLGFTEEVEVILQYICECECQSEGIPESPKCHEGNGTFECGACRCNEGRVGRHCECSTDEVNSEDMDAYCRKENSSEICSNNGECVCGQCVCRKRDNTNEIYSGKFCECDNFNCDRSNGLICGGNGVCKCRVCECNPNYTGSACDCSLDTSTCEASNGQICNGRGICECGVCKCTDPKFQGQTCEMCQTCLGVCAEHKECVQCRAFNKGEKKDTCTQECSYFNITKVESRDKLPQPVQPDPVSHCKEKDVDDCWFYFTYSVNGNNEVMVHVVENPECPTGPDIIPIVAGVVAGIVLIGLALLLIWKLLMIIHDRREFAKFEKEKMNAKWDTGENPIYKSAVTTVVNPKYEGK

Consider Ac-PHSCN-NH2 [PHSCN, Ac-PHSCN—NH2], for which the “IC50 (concentration exhibiting a 50% inhibition of invasion, relative to stimulated controls)” value in data set [1] is given as 30,000 pg/ml. For the same substance, the “mean tumor diameter: untreated tumors fold larger relative to treated tumors” value in the data set on DU 145 prostate cancer was “over 6 fold”. Besides, the invasion after irradiation entry in the data set on BxPC-3 cells was “reduced invasion to zero”. In the data set on Panc1 cells, the invasion after irradiation entry is listed as “reduced invasion to zero”. Moreover, in data set [2], the “concentration preventing metastatic disease progression” value was 1 to 2 µM and the “dosage preventing metastatic disease progression” value is given as 0.5 to 50 mg/kg. Further, the “potency at preventing hmvec invasion” value in data set [3] is given as “equally potent”. Further, in the data set with end-stage human cancers (human, in vivo), the adverse events entry is given as “without significant adverse events”. For the same substance, in the data set on end-stage human cancers (thrice-weekly systemic monotherapy), the “time metastatic disease progression was prevented” value is given as 4 to 14 months. Besides, the “α5β1 expression on irradiated cancer cells” value at α5β1 integrin is reported as “dramatically downregulated”.
